Results taken from patent publication US6916933B2, “4-pyridinyl-n-acyl-l-phenylalanines” (Hoffman-La Roche Inc., priority 1999, dated 2005).

Key:
[1] = target: T1, cell-surface VLA-4 (α4β1 integrin) on Ramos cells binding to immobilized VCAM-1 (Homo sapiens, UniProt P05556+P13612); assay: Ramos (VLA-4)/VCAM-1 Cell-Based Screening Assay (cell adhesion); settings: Calcein-AM labeled Ramos cells, VCAM-1 coated plates
T1 construct: Ramos cells bearing cell-surface VLA-4; endogenous in cells; host or cells: Ramos cells (VLA-4); VCAM-1 partner made in CHO cells
T1 sequence (P13612 34-1032): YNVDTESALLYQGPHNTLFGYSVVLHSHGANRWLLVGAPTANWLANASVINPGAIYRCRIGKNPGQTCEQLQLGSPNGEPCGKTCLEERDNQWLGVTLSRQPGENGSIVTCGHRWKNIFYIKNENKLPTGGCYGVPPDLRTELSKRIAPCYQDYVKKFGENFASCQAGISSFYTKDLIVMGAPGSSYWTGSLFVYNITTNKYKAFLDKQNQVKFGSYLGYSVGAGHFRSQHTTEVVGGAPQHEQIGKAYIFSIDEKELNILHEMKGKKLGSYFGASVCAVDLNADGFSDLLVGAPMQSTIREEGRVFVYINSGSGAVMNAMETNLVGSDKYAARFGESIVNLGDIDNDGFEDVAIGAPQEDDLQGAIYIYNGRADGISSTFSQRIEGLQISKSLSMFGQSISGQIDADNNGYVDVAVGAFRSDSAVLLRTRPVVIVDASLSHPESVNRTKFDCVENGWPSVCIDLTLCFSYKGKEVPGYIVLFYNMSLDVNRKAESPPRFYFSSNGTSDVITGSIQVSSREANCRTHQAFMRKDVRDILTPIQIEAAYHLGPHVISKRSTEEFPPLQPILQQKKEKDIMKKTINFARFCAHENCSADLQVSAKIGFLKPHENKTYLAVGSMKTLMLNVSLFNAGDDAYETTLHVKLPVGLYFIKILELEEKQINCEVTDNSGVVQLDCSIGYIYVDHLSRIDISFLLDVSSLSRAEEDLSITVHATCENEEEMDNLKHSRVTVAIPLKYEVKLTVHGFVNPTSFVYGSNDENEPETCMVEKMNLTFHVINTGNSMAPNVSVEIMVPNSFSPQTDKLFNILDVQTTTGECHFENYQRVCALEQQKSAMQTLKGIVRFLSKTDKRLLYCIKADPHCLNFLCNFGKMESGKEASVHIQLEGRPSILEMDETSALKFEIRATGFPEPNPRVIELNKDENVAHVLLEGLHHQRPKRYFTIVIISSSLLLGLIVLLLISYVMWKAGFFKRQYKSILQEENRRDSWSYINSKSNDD
T1 sequence (P05556 21-798): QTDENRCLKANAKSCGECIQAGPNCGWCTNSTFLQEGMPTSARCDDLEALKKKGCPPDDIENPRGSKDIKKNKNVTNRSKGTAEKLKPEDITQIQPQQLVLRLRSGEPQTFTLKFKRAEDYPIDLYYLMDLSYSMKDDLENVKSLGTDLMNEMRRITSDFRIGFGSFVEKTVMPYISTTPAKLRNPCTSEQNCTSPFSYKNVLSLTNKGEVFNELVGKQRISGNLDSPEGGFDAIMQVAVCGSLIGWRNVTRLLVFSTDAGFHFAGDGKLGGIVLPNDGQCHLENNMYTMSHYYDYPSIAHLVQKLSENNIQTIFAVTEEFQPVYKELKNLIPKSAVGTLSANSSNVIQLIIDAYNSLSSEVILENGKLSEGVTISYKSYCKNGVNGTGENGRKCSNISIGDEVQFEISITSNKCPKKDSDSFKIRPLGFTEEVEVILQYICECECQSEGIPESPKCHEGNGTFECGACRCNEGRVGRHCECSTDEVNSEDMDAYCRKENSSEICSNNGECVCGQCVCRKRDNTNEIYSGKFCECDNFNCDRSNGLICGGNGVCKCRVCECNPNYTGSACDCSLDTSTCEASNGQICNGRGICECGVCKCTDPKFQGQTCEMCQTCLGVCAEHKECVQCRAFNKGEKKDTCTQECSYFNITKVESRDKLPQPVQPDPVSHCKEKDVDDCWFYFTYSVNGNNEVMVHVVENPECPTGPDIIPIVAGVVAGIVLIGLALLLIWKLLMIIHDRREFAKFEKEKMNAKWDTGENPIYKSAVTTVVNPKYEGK
Method: Ramos (VLA-4)/VCAM-1 Cell-Based Screening Assay Protocol
Soluble recombinant human VCAM-1 (mixture of 5- and 7-Ig domain) was purified from CHO cell culture media by immunoaffinity chromatography and maintained in a solution containing 0.1 M Tris-glycine (pH 7.5), 0.1 M NaCl, 5 mM EDTA, 1 mM PMSF, […] NaN3 and 10 μg/mL leupeptin. Calcein-AM was purchased from Molecular Probes Inc.
VLA-4 (α4β1 integrin) antagonist activity, defined as ability to compete with cell-surface VLA-4 for binding to immobilized VCAM-1, was quantitated using a Ramos-VCAM-1 cell adhesion assay. Ramos cells bearing cell-surface VLA-4, were labeled with a fluorescent dye (Calcein-AM) and allowed to bind VCAM-1 in the presence or absence of test compounds. A reduction in fluorescence intensity associated with adherent cells (% inhibition) reflected competitive inhibition of VLA-4 mediated cell adhesion by the test compound.
Initially, this entailed coating 96 well plates (Nunc Maxisorp) with recombinant human VCAM-1 (100 ng in 100 μl PBS), sealing each plate and allowing the plates to stand at 4° C. for ≈18 hr. The VCAM-coated plates were subsequently washed twice with 0.05% Tween-20 in PBS, and then blocked for 1 hr (room temperature) with 200 μl of Blocking Buffer (1% BSA/0.02% thimerosal) to reduce non-specific binding. Following the incubation with Blocking Buffer, plates were inverted, blotted and the remaining buffer aspirated. Each plate was then washed with 300 μl PBS, inverted and the remaining PBS aspirated.
Test compounds were dissolved in 100% DMSO and then diluted 1:25 in VCAM Cell Adhesion Assay Buffer (4 mM CaCl2, 4 mM MgCl2 in 50 mM TRIS-HCl, pH 7.5) (final DMSO=4%). A series of eight 1:4 dilutions were performed for each compound (general concentration range of 1 nM-12,500 nM). 100 μl/well of each dilution was added to the VCAM-coated plates, followed by 100 μl of Ramos cells (200,000 cells/well in 1% BSA/PBS). Plates containing test compounds and Ramos cells were allowed to incubate for 45 min at room temperature, after which 165 μl/well PBS was added. Plates were inverted to remove non-adherent cells, blotted and 300 μL/well PBS added. Plates were again inverted, blotted and the remaining buffer gently aspirated. 100 μl Lysis Buffer (0.1% SDS in 50 mM TRIS-HCl, pH 8.5) was added to each well and agitated for 2 min on a rotary shaking platform. The plates were then read for fluorescence intensity on a Cytofluor 2300 (Millipore) fluorecence measurement system (excitation=485 nm, emission=530 nm).
The results are provided in the following Table II (A=IC50<100 nM, B=IC50<10000 nM, C=IC50<5,000 nM): […]

IC50 [1] [µM]	melting point [°C]	Structure (SMILES)
< 10	204 to 210	Cc1cccc(Cl)c1C(=O)N[C@@H](Cc1ccc(-c2cccn(C)c2=O)cc1)C(=O)O [Example 30, N-[(2-chloro-6-methylphenyl)carbonyl]-4-(1-methyl-2-oxo-3-pyridinyl)-L-phenylalanine]
< 10	–	Cc1ccn(C)c(=O)c1-c1ccc(C[C@H](NC(=O)c2c(Cl)cccc2Cl)C(=O)O)cc1 [Example 31, N-[(2,6-dichlorophenyl)carbonyl]-4-(1,4-dimethyl-2-oxo-3-pyridinyl)-L-phenylalanine]
< 10	–	Cc1cccc(Cl)c1C(=O)N[C@@H](Cc1ccc(-c2c(C)ccn(C)c2=O)cc1)C(=O)O [Example 32, N-[(2-chloro-6-methylphenyl)carbonyl]-4-(1,4-dimethyl-2-oxo-3-pyridinyl)-L-phenylalanine]
< 0.1	–	Cc1cc(C(F)(F)F)c(-c2ccc(C[C@H](NC(=O)c3c(Cl)cccc3Cl)C(=O)O)cc2)c(=O)n1C [Example 33, N-[(2,6-dichlorophenyl)carbonyl]-4-[1,6-dimethyl-4-(trifluoromethyl)-2-oxo-3-pyridinyl]-L-phenylalanine]
< 10	219 to 221	CCc1cccc(C)c1C(=O)N[C@@H](Cc1ccc(-c2c(C(F)(F)F)cc(C)n(C)c2=O)cc1)C(=O)O [Example 34, N-[(2-ethyl-6-methylphenyl)carbonyl]-4-[1,6-dimethyl-4-(trifluoromethyl)-2-oxo-3-pyridinyl]-L-phenylalanine]
< 10	–	Cc1cccc(C(C)C)c1C(=O)N[C@@H](Cc1ccc(-c2c(C(F)(F)F)cc(C)n(C)c2=O)cc1)C(=O)O [Example 35, N-[(2-(1-methylethyl)-6-methylphenyl)carbonyl]-4-[1,6-dimethyl-4-(trifluoromethyl)-2-oxo-3-pyridinyl]-L-phenylalanine]
< 0.1	220 to 223	Cc1cccc(Cl)c1C(=O)N[C@@H](Cc1ccc(-c2c(C(F)(F)F)cc(C)n(C)c2=O)cc1)C(=O)O [Example 36, N-[(2-chloro-6-methylphenyl)carbonyl]-4-[1,6-dimethyl-4-(trifluoromethyl)-2-oxo-3-pyridinyl]-L-phenylalanine]
< 10	181 to 183	COCCC1(C(=O)N[C@@H](Cc2ccc(-c3c(C(F)(F)F)cc(C)n(C)c3=O)cc2)C(=O)O)CCCC1 [Example 37, N-[[1-(2-methoxyethyl)cyclopentyl]carbonyl]-4-[1,6-dimethyl-4-(trifluoromethyl)-2-oxo-3-pyridinyl]-L-phenylalanine]
